Measurements from publication PMC6058608, “Cell penetrating peptides: a comparative transport analysis for 474 sequence motifs” (Drug Delivery, 2018).

System: HeLa cells
Assay: CPP uptake experiment: cellular fluorescence of FAM-labeled CPPs
Format: cell-based, human
Conditions: for Fluorescence (RFU): HeLa cells after incubation with 10 µM FAM-labeled CPP, 90 min, 37 °C, mean of two experiments (Table 1)
Method: The human cervix adenocarcinoma cell line HeLa was obtained from I.A.Z. (Munich, Germany). As cell growth medium DMEM/Ham’s F-12 (1:1) supplemented with 2 mM L-glutamine, 10% fetal bovine serum, and 1% penicillin/streptomycin (all Capricorn Scientific, Ebsdorfergrund, Germany, formerly PAA Laboratories) was used, and cells were cultured at 37 °C and 5% CO2. They were passaged before reaching confluence; for the experiments, cells at passages p8–p20 were used. For testing uptake efficiency and cytotoxicity of CPPs, cells were seeded in 96-well µ-plates (ibidi, Munich, Germany) at a concentration of 6 × 10^4 cells per well and incubated for 48 h to reach confluence before performing the experiments.
All solutions used were warmed to 37 °C, with CPP incubation performed at 37 °C and 5% CO2. CPP working solutions were prepared in 96-well polypropylene plates (Corning, Amsterdam, Netherlands) directly before incubation by diluting the 50 µM FAM-labeled CPP stock solutions to 10 µM with cell growth medium. The confluent HeLa cells in the 96-well µ-plates were exposed to 100 µl of a 10 µM CPP working solution per well for 90 min. Cell growth medium served as negative control. After incubation, the cells were washed twice with 300 µl of CM-PBS (PAA Laboratories), then 100 µl CM-PBS was added before determining fluorescence intensities in a plate reader (SpectraMax M5, Molecular Devices, Sunnyvale, CA) at an excitation wavelength of 495 nm and an emission wavelength of 530 nm. Transmission images of the treated cell layers were taken using a MORE microscope (TILL Photonics, Munich, Germany) equipped with a 10×/0.45 objective (Zeiss, Jena, Germany), an FITC filterset (ET480_40x/ET535_50 m/T510LPXRXT, Chroma, Rockingham, NC) and LED and oligochrome light source (FEI). Images were acquired using a Stingray F-145B CCD camera (Allied Vision Tech., Stadtroda, Germany) via live acquisition software (v2.2.2, FEI).

| Substance | Uptake of FAM without CPP into the HeLa layer (FAM not coupled to a CPP, mean value and standard error of two measurements) [RFU] | Fluorescence (RFU) |
| --- | --- | --- |
| 5(6)-carboxyfluorescein [FAM, reference compound] | 14.3 ± 8.1 |  |
| CWKKKKKKKKKKKKKKKKKK [compound 429] |  | 417.94 |
| GLFKALLKLLKSLWKLLLKA [compound 431] |  | 326.66 |
| GLWRALWRALRSLWKLKRKV [compound 425] |  | 384.64 |
| GLWRALWRGLRSLWKKKRKV [compound 427] |  | 375.17 |
| GLWRALWRGLRSLWKLKRKV [compound 426] |  | 347.66 |
| KALAKALAKLWKALAKAA [compound 373] |  | 345.58 |
| KKKKKKKKKKKKKKKKKKK [compound 412, designed model peptide, FAM-labeled CPP] |  | 632.01 |
| KLAAALLKKWKKLAAALL [compound 375] |  | 335.89 |
| KLALKLALKALKAALK [compound 296, designed model peptide, FAM-labeled CPP] |  | 478.40 |
| KLALKLALKALKAALKLA [compound 405] |  | 440.41 |
| KLALKLALKAWKAALKLA [compound 372] |  | 309.34 |
| KTVLLRKLLKLLVRKI [compound 342, designed model peptide, FAM-labeled CPP] |  | 855.56 |
| LIRLWSHLIHIWFQNRRLKWKKK [compound 466] |  | 425.60 |
| LLKKRKVVRLIKFLLK [compound 343] |  | 435.30 |
| LNSAGYLLGKINLKALAALAKKIL [compound 473] |  | 422.13 |
| PKKKRKVALWKTLLKKVLKA [compound 415] |  | 390.81 |
| RQARRNRRRALWKTLLKKVLKA [compound 446] |  | 450.97 |
| VKRKKKPALWKTLLKKVLKA [compound 416, CPP derived from the antimicrobial peptide dermaseptin S4 attached to a nuclear localization signal, FAM-labeled] |  | 925.42 |
| WLRRIKAWLRRIKALNRQLGVAA [compound 471] |  | 1011.42 |
| YTAIAWVKAFIRKLRK [compound 351] |  | 401.31 |
